Experiments:
Format in all cases: in vivo, nude/nude mice
AsPC-1 cells [1] = assay: AsPC-1 TGI-42 pancreatic cancer xenograft, tumor volumes
Procedure: (§1) Immunocompromised nude/nude mice are inoculated in the right hind flank with cells harboring a KRas G12D mutation. When tumor volumes reach between 200-400 mm^3 in size, the mice are divided into four to five groups of 5 mice each. The first group is administered vehicle only. […] The fourth or last groups are administered the single agent dose of the KRas G12D inhibitor using the twice daily schedule and/or the 2 sequential days followed by 5 days off schedule in combination with the single agent dose of one of the EGFR inhibitors. The treatment period varies from cell line to cell line but typically is between 15-40 days. Tumor volumes are measured using a caliper every two-three days and tumor volumes are calculated by the formula: […].
(§2) 20 to 30 nude/nude mice per study were inoculated in the right hind limb with 5×10^6 LS180 cells, AsPC-1 cells, GP2D cells, Panc 02.03 cells, SW1990 cells, or SNU-1033 cells.
Experimental Procedures. 30 nude/nude mice were inoculated with AsPC-1 cells in the right hind flank. When the tumors reached ˜300 mm^3 six treatment groups were established with five mice per group.

Panc 02.03 = Panc 02.03 TGI-43 pancreatic cancer xenograft (Table 5), tumor volumes; conditions: for Average Tumor Volumes: 30 mg/kg BID 2x/week
Procedure: as §1, with “The treatment period varies from cell line to cell line but typically is between 15-40 days.” left out
20 to 30 nude/nude mice per study were inoculated in the right hind limb with 5×10^6 LS180 cells, AsPC-1 cells, GP2D cells, Panc 02.03 cells, SW1990 cells, or SNU-1033 cells. […]

SW1990 cells = assay: SW1990 TGI MDS #200407-807 pancreatic cancer xenograft, tumor volumes; conditions: for Average Tumor Volumes: 30 mg/kg BID Daily
Procedure: as §1, with “The treatment period varies from cell line to cell line but typically is between 15-40 days.” left out
as §2
Experimental Procedures. 30 nude/nude mice were inoculated with SW1990 cells in the right hind flank. When the tumors reached ˜300 mm^3 six treatment groups were established with five mice per group.

AsPC-1 cells [2] = assay: AsPC-1 TGI 26 pancreatic cancer xenograft, tumor volumes; conditions: for Average Tumor Volumes: 30 mg/kg IP BID daily
Procedure: as §1, with “The treatment period varies from cell line to cell line but typically is between 15-40 days.” left out
Experimental Procedures. 20 nude/nude mice were inoculated with AsPC-1 cells in the right hind flank. When the tumors reached ˜200 mm^3 four treatment groups were established with five mice per group.

C#Cc1c(F)ccc2cc(O)cc(-c3ncc4c(N5C[C@H]6CC[C@@H](C5)N6)nc(OC[C@@]56CCCN5C[C@H](F)C6)nc4c3F)c12 [MRTX1133, 4-(4-((1R,5S)-3,8-diazabicyclo[3.2.1]octan-3-yl)-8-fluoro-2-(((2R,7aS)-2-fluorohexahydro-1H-pyrrolizin-7a-yl)methoxy)pyrido[4,3-d]pyrimidin-7-yl)-5-ethynyl-6-fluoronaphthalen-2-ol]
Average Tumor Volumes (AsPC-1 cells [1]; 30 mg/kg BID 2x/week, Study Day 1): 325.894 mm^3
Average Tumor Volumes (AsPC-1 cells [1]; 30 mg/kg BID 2x/week, Study Day 6): 394.182 mm^3
Average Tumor Volumes (AsPC-1 cells [1]; 30 mg/kg BID 2x/week, Study Day 9): 472.586 mm^3
Average Tumor Volumes (AsPC-1 cells [1]; 30 mg/kg BID 2x/week, Study Day 13): 496.598 mm^3
Average Tumor Volumes (AsPC-1 cells [1]; 30 mg/kg BID 2x/week, Study Day 16): 554.052 mm^3
Average Tumor Volumes (AsPC-1 cells [1]; 30 mg/kg BID 2x/week, Study Day 20): 586.5625 mm^3
Average Tumor Volumes (AsPC-1 cells [1]; 30 mg/kg BID 2x/week, Study Day 23): 640.49 mm^3
Average Tumor Volumes (AsPC-1 cells [1]; 30 mg/kg BID 2x/week, Study Day 27): 679.96 mm^3
Average Tumor Volumes (AsPC-1 cells [1]; 30 mg/kg BID 2x/week, Study Day 30): 795.11 mm^3
Average Tumor Volumes (AsPC-1 cells [1]; 30 mg/kg BID 2x/week, Study Day 34): 862.74 mm^3
Average Tumor Volumes (AsPC-1 cells [1]; 30 mg/kg BID Daily, Study Day 1): 323.454 mm^3
Average Tumor Volumes (AsPC-1 cells [1]; 30 mg/kg BID Daily, Study Day 6): 356.398 mm^3
Average Tumor Volumes (AsPC-1 cells [1]; 30 mg/kg BID Daily, Study Day 9): 374.684 mm^3
Average Tumor Volumes (AsPC-1 cells [1]; 30 mg/kg BID Daily, Study Day 13): 316.51 mm^3
Average Tumor Volumes (AsPC-1 cells [1]; 30 mg/kg BID Daily, Study Day 16): 291.71 mm^3
Average Tumor Volumes (AsPC-1 cells [1]; 30 mg/kg BID Daily, Study Day 20): 269.246 mm^3
Average Tumor Volumes (AsPC-1 cells [1]; 30 mg/kg BID Daily, Study Day 23): 213.334 mm^3
Average Tumor Volumes (AsPC-1 cells [1]; 30 mg/kg BID Daily, Study Day 27): 195.354 mm^3
Average Tumor Volumes (AsPC-1 cells [1]; 30 mg/kg BID Daily, Study Day 30): 216.072 mm^3
Average Tumor Volumes (AsPC-1 cells [1]; 30 mg/kg BID Daily, Study Day 34): 266.324 mm^3
tumor regression (AsPC-1 cells [1]; 30 mg/kg BID daily, single agent, Day 34): −9%
Average Tumor Volumes (Panc 02.03; Study Day 1): 329.18 mm^3
Average Tumor Volumes (Panc 02.03; Study Day 4): 265.246 mm^3
Average Tumor Volumes (Panc 02.03; Study Day 8): 386.354 mm^3
Average Tumor Volumes (Panc 02.03; Study Day 11): 392.042 mm^3
Average Tumor Volumes (Panc 02.03; Study Day 15): 480.434 mm^3
Average Tumor Volumes (Panc 02.03; Study Day 18): 496.496 mm^3
Average Tumor Volumes (Panc 02.03; Study Day 22): 549.618 mm^3
tumor growth inhibition (Panc 02.03; 30 mg/kg BID (twice per week), single agent, Day 22): 72%
Average Tumor Volumes (SW1990 cells; Study Day 2): 265.08 mm^3
Average Tumor Volumes (SW1990 cells; Study Day 6): 194.42 mm^3
Average Tumor Volumes (SW1990 cells; Study Day 9): 187.24 mm^3
Average Tumor Volumes (SW1990 cells; Study Day 13): 241.84 mm^3
Average Tumor Volumes (SW1990 cells; Study Day 16): 235.32 mm^3
Average Tumor Volumes (SW1990 cells; Study Day 20): 214.98 mm^3
Average Tumor Volumes (SW1990 cells; Study Day 23): 195.04 mm^3
Average Tumor Volumes (SW1990 cells; Study Day −1): 362.82 mm^3
tumor regression (SW1990 cells; 30 mg/kg BID daily, single agent, Day 23): −46%
Average Tumor Volumes (AsPC-1 cells [2]; Study Day 0): 197.468 mm^3
Average Tumor Volumes (AsPC-1 cells [2]; Study Day 4): 194.514 mm^3
Average Tumor Volumes (AsPC-1 cells [2]; Study Day 7): 175.198 mm^3
Average Tumor Volumes (AsPC-1 cells [2]; Study Day 11): 159.756 mm^3
Average Tumor Volumes (AsPC-1 cells [2]; Study Day 14): 172.986 mm^3
Average Tumor Volumes (AsPC-1 cells [2]; Study Day 18): 168.412 mm^3
Average Tumor Volumes (AsPC-1 cells [2]; Study Day 21): 143.928 mm^3
Average Tumor Volumes (AsPC-1 cells [2]; Study Day 25): 149.308 mm^3
tumor regression (AsPC-1 cells [2]; 30 mg/kg twice daily, single agent, Day 25): −24%

From patent publication US20240408099A1, “COMBINATION […] OF KRAS G12D INHIBITORS WITH Pan ErbB FAMILY INHIBITORS” (MIRATI THERAPEUTICS, INC., priority 2021, published 2024)
